According to the supplement of paper PMC10307832:

Columns and labels:
Assay in all cases: relative viability (nuclei count vs DMSO), 5 days (fraction); higher = more cells survive
Neratinib + Lapatinib = compound: CCOc1cc2ncc(C#N)c(Nc3ccc(OCc4ccccn4)c(Cl)c3)c2cc1NC(=O)/C=C/CN(C)C [Neratinib] + CS(=O)(=O)CCNCc1ccc(-c2ccc3ncnc(Nc4ccc(OCc5cccc(F)c5)c(Cl)c4)c3c2)o1 [Lapatinib] (partner 2 µM)
How it was run: (§1)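 Each reported value is a median over duplicate plates. It expresses relative viability: treated-well nuclei count divided by vehicle-well nuclei count. Lung cancer cell lines in 1536-well plates were dosed by pin tool a day after seeding, alone with one drug or with a fixed anchor-drug dose plus five library-drug doses (not always all listed) in √10 steps, and nuclei were counted after 5 days.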

Neratinib + Crizotinib = compound: CCOc1cc2ncc(C#N)c(Nc3ccc(OCc4ccccn4)c(Cl)c3)c2cc1NC(=O)/C=C/CN(C)C [Neratinib] + C[C@@H](Oc1cc(-c2cnn(C3CCNCC3)c2)cnc1N)c1c(Cl)ccc(F)c1Cl [Crizotinib] (partner 1 µM)
How it was run: as §1

Neratinib + Dasatinib = compound: CCOc1cc2ncc(C#N)c(Nc3ccc(OCc4ccccn4)c(Cl)c3)c2cc1NC(=O)/C=C/CN(C)C [Neratinib] + Cc1nc(Nc2ncc(C(=O)Nc3c(C)cccc3Cl)s2)cc(N2CCN(CCO)CC2)n1 [Dasatinib] (partner 0.075 µM)
How it was run: as §1

Neratinib + Pemetrexed = compound: CCOc1cc2ncc(C#N)c(Nc3ccc(OCc4ccccn4)c(Cl)c3)c2cc1NC(=O)/C=C/CN(C)C [Neratinib] + Nc1nc2[nH]cc(CCc3ccc(C(=O)N[C@@H](CCC(=O)O)C(=O)O)cc3)c2c(=O)[nH]1 [Pemetrexed] (partner 0.2 µM)
How it was run: as §1

Cell Line	relative viability (Neratinib + Lapatinib; first compound 0.01 µM)	relative viability (Neratinib + Lapatinib; first compound 0.03162 µM)	relative viability (Neratinib + Lapatinib; first compound 0.1 µM)	relative viability (Neratinib + Lapatinib; first compound 0.3162 µM)	relative viability (Neratinib + Lapatinib; first compound 1 µM)	relative viability (Neratinib + Crizotinib; first compound 0.01 µM)	relative viability (Neratinib + Crizotinib; first compound 0.03162 µM)	relative viability (Neratinib + Crizotinib; first compound 0.1 µM)	relative viability (Neratinib + Crizotinib; first compound 0.3162 µM)	relative viability (Neratinib + Crizotinib; first compound 1 µM)	relative viability (Neratinib + Dasatinib; first compound 0.01 µM)	relative viability (Neratinib + Dasatinib; first compound 0.03162 µM)	relative viability (Neratinib + Dasatinib; first compound 0.1 µM)	relative viability (Neratinib + Dasatinib; first compound 0.3162 µM)	relative viability (Neratinib + Dasatinib; first compound 1 µM)	relative viability (Neratinib + Pemetrexed; first compound 0.01 µM)	relative viability (Neratinib + Pemetrexed; first compound 0.03162 µM)	relative viability (Neratinib + Pemetrexed; first compound 0.1 µM)	relative viability (Neratinib + Pemetrexed; first compound 0.3162 µM)	relative viability (Neratinib + Pemetrexed; first compound 1 µM)
A-427	1.08	1.12	0.972	1	0.998	1.07	0.936	0.819	0.924	0.566	0.895	0.74	0.734	0.673	0.571	1.13	1.05	0.975	0.897	0.866
COR-L 105	0.36	0.37	0.331	0.377	0.32	0.978	0.828	0.531	0.201	0.22	0.288	0.353	0.236	0.146	0.164	1.11	1.13	0.857	0.484	0.37
NCI-H460	1.15	1.38		0.921	0.557	1.2	0.743		0.641	0.355	0.524	0.527	0.446	0.455	0.317	0.062	0.0586	0.063	0.0641	0.0813
NCI-H2228	1.03	1.26	1.01	0.924	0.259	0.668	0.44	0.294	0.322	0.225	0.494	0.566	0.366	0.45	0.102	0.382	0.362	0.306	0.271	0.147
NCI-H520	1	1	0.858		0.682	0.908	0.929	0.773	0.689	0.429	0.212	0.199	0.228	0.171	0.147	0.631	0.735		0.505	
NCI-H1993	0.88	0.795	0.79	0.845	0.803	0.859	0.901	0.586	0.771	0.677	0.638	0.607	0.558	0.589	0.575	0.398	0.543	0.533	0.564	0.486
EKVX	0.186	0.212	0.179	0.195	0.189	1.32	1.08	0.823	0.452	0.211	0.632	0.676	0.443	0.243	0.253	0.413	0.421	0.288	0.232	0.167
NCI-H1734	1.28	1.1	0.909	1.06	0.829	0.838	0.722	0.535	0.646	0.446	0.475	0.466	0.424	0.38	0.345	0.421	0.467	0.354	0.432	0.492
NCI-H650	1.04	1.02	0.996		1.04	0.866	0.699	0.78		0.421	0.489	0.493	0.477	0.416	0.463	0.98	1.11	0.932	0.831	0.773
EPLC-272H	0.889	0.849	0.829	0.899	0.536	0.997	0.964	0.799	0.613	0.553		0.457	0.284	0.208	0.152	0.27	0.356	0.262	0.281	0.233
NCI-H647	0.989	1.27	0.857	1	0.802	1.21	0.978	0.852	0.835	0.427	0.171	0.198	0.207	0.129	0.0912	0.187	0.174	0.19	0.156	0.134
NCI-H1792	1.02	1.08	0.547	0.81	0.849	1.1	1.09	0.931	0.867	0.872	0.769	0.905	0.738	0.684	0.368	0.826	1.16	0.716	0.812	0.538
NCI-H2009	0.939	1.15	0.862	0.834	1.52	1.02	1.05	0.524	0.946	0.783	0.3	0.347	0.301	0.292	0.206	1.09		1.06	1.06	1.01
NCI-H661	0.563	0.45	0.431	0.427	0.312	1.06	0.983	0.989	0.828	0.343	0.924	0.741	0.5	0.317	0.338	0.951	0.947	0.595	0.704	0.537
NCI-H1563	0.921	0.975	0.889	1.57	0.843	0.918	0.802	0.788	0.758	0.638	0.513	0.485	0.499	0.41	0.332	0.812	0.924	0.739	0.747	0.582
